SMILES strings stand for the structures. pIC50, pKd: −log10 of the molar value.

In assay [1] the target is MCL1 (Homo sapiens, UniProt Q07820). Briefly: MCL1 affinity assay (competition binding, qPCR readout). As to conditions: recombinant MCL1, 11-point 3-fold dilution series. As for the experimental part:
Recombinant MCL1, BCL2 and BCXL proteins were prepared in either an E. coli host derived from the BL21 strain or in HEK-293 cells. The recombinant proteins were subsequently tagged with DNA for qPCR detection. Streptavidin-coated magnetic beads were treated for 30 minutes at room temperature with the respective biotinylated peptide ligands for each recombinant protein to generate affinity resins for the assays. The liganded beads were blocked with excess biotin and washed with blocking buffer (SeaBlock (Pierce), 1% BSA, 0.05% Tween 20, 1 mM DTT) to remove unbound ligand and to reduce nonspecific binding. Binding reactions were assembled by combining recombinant protein, liganded affinity beads, and test compounds in 1× binding buffer (20% SeaBlock, 0.17×PBS, 0.05% Tween 20, 6 mM DTT). Test compounds were prepared as 111X stocks in 100% DMSO. The compounds were then diluted directly into the assays such that the final concentration of DMSO was 0.9%. The assay plates were incubated at room temperature with shaking for 1 hour and the affinity beads were washed with wash buffer (1×PBS, 0.05% Tween 20). The beads were then re-suspended in elution buffer (1×PBS, 0.05% Tween 20, 0.5 μM non-biotinylated affinity ligand) and incubated at room temperature with shaking for 30 minutes. The recombinant protein concentration in the eluates was measured by qPCR. Kds were determined using an 11-point 3-fold compound dilution series with three DMSO control points.

For assay [2], the system named is drug-sensitive cell lines of Table 3. Briefly: Cell line growth retardation assay, sensitive cohort. The assay is classed as cell-based, Human. As to conditions: for pIC50: Homo sapiens, 144 h, arithmetic mean of IC50s over the sensitive cohort of Table 3, 6 days growth, read-out: AvgSen IC50; for Fold Diff: average IC50 of resistant cohort divided by average IC50 of sensitive cohort. As for the experimental part: (§1) Cells were seeded at densities of 1,000-5,000 cells per well in 48-well tissue culture plates. After a 24 h rest period, cells were treated with compound at 10 μM, 1 μM, […], 0.08 μM, 0.016 μM, and 0.0032 μM. A group of cells were treated with the vehicle in which the compound was prepared and served as a control. Prior to treatment, cells were counted and this count was used as a baseline for the calculation of growth inhibition. The cells were grown in the presence of compounds for 6 days and were counted on day 6. All cell counting was performed using a Synentec Cellavista plate imager. Growth inhibition was calculated as a ratio of cell population doublings in the presence of compound versus the absence of compound. […] IC50 values for each compound were calculated by fitting curves to data points from each dose-response assay using the Proc NLIN function in SAS for Windows version 9.2 (SAS Institute, Inc.).
(§2) Human cancer cell lines were grouped as “sensitive” or “resistant” to MCL1 inhibition based on whether their growth was retarded by AMG-176 (i.e., (1′S,11R,12S,14E,16S,16aR,18aR)-6′-Chloro-3′,4′,12,13,16,16a,17,18,18a,19-decahydro-16-methoxy-11,12-dimethyl-,Spiro[5,7-etheno-1H,11H-cyclobut[i][1,4]oxazepino[3,4-f][1,2,7]thiadiazacyclohexadecine-2(3H),1′(2′H)-naphthalen]-8(9H)-one 10,10-dioxide) or MIK665 (i.e., (R)-2-((5-(3-chloro-2-methyl-4-(2-(4-methylpiperazin-1-yl)ethoxy)phenyl)-6-(4-fluorophenyl)thieno[2,3-d]pyrimidin-4-yl)oxy)-3-(2-((2-(2-methoxyphenyl)pyrimidin-4-yl)methoxy)phenyl)propanoic acid) (data not shown; see Table 3). These sensitive and resistant cohorts were interrogated for response to each compound, and IC50S were calculated for each cell line using the same technique described above. Average IC50S for the sensitive (“AvgSen IC50”) and resistant (“AvgRes IC50”) cohorts were calculated as arithmetic means of the group, and fold differences (“Fold Diff”) between the resistant and sensitive cohorts were calculated by diving the average IC50 for the resistant cohort by the average IC50 for the sensitive cohort. “A” represents an IC50 of 1 μM or less, “B” represents an IC50 of greater than 1 μM to 5 μM, “C” represents an IC50 of greater than 5 μM, “+” represents a fold difference of 10 or more, and “−” represents a fold difference less than 10.

The subject of assay [3] is drug-resistant cell lines of Table 3. Briefly: Cell line growth retardation assay, resistant cohort. Format: cell-based, Human. As to conditions: Homo sapiens, 144 h; arithmetic mean of IC50s over the resistant cohort of Table 3, 6 days growth; read-out: AvgRes IC50. As for the experimental part:
as §1, §2

MCL1, sequence (Q07820 whole entry): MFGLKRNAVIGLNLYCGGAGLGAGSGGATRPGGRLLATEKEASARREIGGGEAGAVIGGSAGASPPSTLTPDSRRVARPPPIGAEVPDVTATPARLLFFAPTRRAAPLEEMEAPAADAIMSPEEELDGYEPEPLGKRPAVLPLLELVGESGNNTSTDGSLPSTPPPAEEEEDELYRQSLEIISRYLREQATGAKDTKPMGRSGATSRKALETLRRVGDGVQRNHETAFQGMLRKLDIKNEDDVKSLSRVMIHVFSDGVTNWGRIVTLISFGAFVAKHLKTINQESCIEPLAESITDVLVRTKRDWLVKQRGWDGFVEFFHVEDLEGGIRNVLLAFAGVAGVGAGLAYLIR

With `Cc1c(-c2c(-c3ccc4sccc4c3)ncc3snc(O[C@H](Cc4ccccc4OCc4ccnn4CC(F)(F)F)C(=O)O)c23)ccc(OCCN2CCN(C)CC2)c1Cl` (atropisomer, axis not shown) [Compound 8], the pKd in assay [1] was under 5.82.
Regarding `CCOc1cc(-c2ncc3snc(O[C@H](Cc4ccccc4OCc4ccnc(-c5ccccc5OC)n4)C(=O)O)c3c2-c2ccc(OCCN3CCN(C)CC3)c(Cl)c2C)ccn1` (atropisomer, axis not shown) [Compound 32], the pKd in assay [1] is at least 7.00. Besides, in assay [2], the pIC50 is at least 6.00 and the “Fold Diff” value is on record as “+ (“+” represents a fold difference of 10 or more)”. In addition, in assay [3], the pIC50 is under 5.30.
Taken in the same sequence, the figures for `COc1cc(-c2ncc3snc(O[C@H](Cc4ccccc4OCc4ccnc(-c5ccccc5OC)n4)C(=O)O)c3c2-c2ccc(OCCN3CCN(C)CC3)c(Cl)c2C)ccn1` (atropisomer, axis not shown) [Compound 33] were at least 7.00, at least 6.00, “+ (“+” represents a fold difference of 10 or more)” and under 5.30.
As to `COc1ccccc1-c1nccc(COc2ccccc2C[C@@H](Oc2nsc3cnc(-c4cccc(F)c4)c(-c4ccc(OCCN5CCN(C)CC5)c(Cl)c4C)c23)C(=O)O)n1` (atropisomer, axis not shown) [Compound 35], the pKd in assay [1] was at least 7.00. Moreover, the pIC50 in assay [2] is at least 6.00; in assay [3], under 5.30. Besides, the “Fold Diff” value in assay [2] is given as “+ (“+” represents a fold difference of 10 or more)”.
For `COc1ccccc1-c1nccc(COc2ccccc2C[C@@H](Oc2nsc3cnc(C4CCC4)c(-c4ccc(OCCN5CCN(C)CC5)c(Cl)c4C)c23)C(=O)O)n1` (atropisomer, axis not shown) [Compound 36], the pKd in assay [1] is at least 7.00. Further, the pIC50 in assay [2] is at least 6.00; in assay [3] it was under 5.30. The “Fold Diff” value in assay [2] was “+ (“+” represents a fold difference of 10 or more)”.
Taken in the same sequence, the figures for `COc1cc(-c2ncc3snc(O[C@H](Cc4ccccc4OCc4ccnc(-c5ccccc5OC)n4)C(=O)O)c3c2-c2ccc(OCCN3CCN(C)CC3)c(Cl)c2C)ccc1F` (atropisomer, axis not shown) [Compound 37] were 6.30 to 7.00, under 5.30, under 5.30 and “− (“−” represents a fold difference less than 10)”.
On to `COc1ccccc1-c1nccc(COc2ccccc2C[C@@H](Oc2nsc3cnc(-c4ccn(CC(C)C)n4)c(-c4ccc(OCCN5CCN(C)CC5)c(Cl)c4C)c23)C(=O)O)n1` (atropisomer, axis not shown) [Compound 38], for which the pKd in assay [1] is at least 7.00. Further, in assay [2], the pIC50 is at least 6.00 and the “Fold Diff” value is “+ (“+” represents a fold difference of 10 or more)”. For the same compound, the pIC50 in assay [3] is under 5.30.
The corresponding values for `COc1cccc(-c2ncc3snc(O[C@H](Cc4ccccc4OCc4ccnc(-c5ccccc5OC)n4)C(=O)O)c3c2-c2ccc(OCCN3CCN(C)CC3)c(Cl)c2C)c1` (atropisomer, axis not shown) [Compound 39] are 5.82 to 6.30, 5.30 to 6.00, “− (“−” represents a fold difference less than 10)” and 5.30 to 6.00.
Take `COc1ccccc1-c1nccc(COc2ccccc2C[C@@H](Oc2nsc3cnc(-c4cccc(F)c4)c(-c4ccc(OCCN(C)C)c(Cl)c4C)c23)C(=O)O)n1` (atropisomer, axis not shown) [Compound 55]: the pKd in assay [1] was at least 7.00. The values for the pIC50 in assay [2] and in assay [3] were at least 6.00 and under 5.30, respectively. Moreover, in assay [2], the “Fold Diff” value is “+ (“+” represents a fold difference of 10 or more)”.
As for `COc1ccccc1-c1nccc(COc2ccccc2C[C@@H](Oc2nsc3cnc(C4CC4)c(-c4ccc(OCCN(C)C)c(Cl)c4C)c23)C(=O)O)n1` (atropisomer, axis not shown) [Compound 56], in assay [1], the pKd was at least 7.00. Besides, in assay [2], the pIC50 was at least 6.00 and the “Fold Diff” value was “+ (“+” represents a fold difference of 10 or more)”. Also, in assay [3], the pIC50 was under 5.30.
Taken in the same sequence, the figures for `COc1cccc(-c2ncc3snc(O[C@H](Cc4ccccc4OCc4ccnc(OCCC(F)(F)F)n4)C(=O)O)c3c2-c2ccc(OCCN3CCN(C)CC3)c(Cl)c2C)c1` (atropisomer, axis not shown) [Compound 57] were at least 7.00, at least 6.00, “+ (“+” represents a fold difference of 10 or more)” and under 5.30.
As for `COc1cccc(-c2ncc3snc(O[C@H](Cc4ccccc4OCc4ccnc(N5CCCC(F)(F)C5)n4)C(=O)O)c3c2-c2ccc(OCCN3CCN(C)CC3)c(Cl)c2C)c1` (atropisomer, axis not shown) [Compound 61], the pKd in assay [1] is 6.30 to 7.00. Further, the pIC50 in assay [2] was at least 6.00; in assay [3], under 5.30. Also, the “Fold Diff” value in assay [2] is given as “+ (“+” represents a fold difference of 10 or more)”.
`COc1ccccc1-c1nccc(COc2ccccc2C[C@@H](Oc2nsc3cnc(C4CCC4)c(-c4ccc(OCCN5CCN(C)CC5)c(Cl)c4C)c23)C(=O)CCc2oc(=O)oc2C)n1` (atropisomer, axis not shown) [Compound 120]: in assay [2], the negative logarithm of the IC50 (pIC50) was at least 6.00 and the “Fold Diff” value was “+ (“+” represents a fold difference of 10 or more)”. Further, the pIC50 in assay [3] is under 5.30.
The corresponding values for `Cc1c(-c2c(C3CCC3)ncc3snc(O[C@H](Cc4ccccc4OCc4ccnc(-c5cccc(-c6ccn(C)n6)c5)n4)C(=O)O)c23)ccc(OCCN2CCN(C)CC2)c1Cl` (atropisomer, axis not shown) [Compound 121] are at least 6.00, “+ (“+” represents a fold difference of 10 or more)” and under 5.30.
The corresponding values for `Cc1c(-c2c(C3CCC3)ncc3snc(O[C@H](Cc4ccccc4OCc4ccnc(-c5ccc(C(=O)N6CCC6)cc5)n4)C(=O)O)c23)ccc(OCCN2CCN(C)CC2)c1Cl` (atropisomer, axis not shown) [Compound 122] are at least 6.00, “+ (“+” represents a fold difference of 10 or more)” and under 5.30.
Taken in the same sequence, the figures for `Cc1c(-c2c(C3CCC3)ncc3snc(O[C@H](Cc4ccccc4OCc4ccnc(-c5ccc(N6CCOCC6)cc5)n4)C(=O)O)c23)ccc(OCCN2CCN(C)CC2)c1Cl` (atropisomer, axis not shown) [Compound 123] were at least 6.00, “+ (“+” represents a fold difference of 10 or more)” and under 5.30.
For `COc1cccc(-c2ncc3snc(O[C@H](Cc4ccccc4OCc4ccnc(-c5ccccc5OC)n4)C(=O)O)c3c2-c2ccc(OCC3CCCN3C)c(Cl)c2C)c1` (stereo partly shown) [Compound 48], in assay [2], the pIC50 was at least 6.00 and the “Fold Diff” value is on record as “+ (“+” represents a fold difference of 10 or more)”. Further, the pIC50 in assay [3] was under 5.30.
Turning to `CCOC(=O)[C@@H](Cc1ccccc1OCc1ccnc(-c2ccccc2OC)n1)Oc1nsc2cnc(C3CCC3)c(-c3ccc(OCCN4CCN(C)CC4)c(Cl)c3C)c12` [Compound 103], the pKd in assay [1] is under 5.82.

These data come from patent US20230116602A1, “MCL1 INHIBITORS AND USES THEREOF” (California Institute of Technology, priority 2019, published 2023).
